Measurements: a compilation of properties of binary mixtures (doi:10.1016/j.molliq.2020.112644)

Assay: xn = mol fraction of the nth substance listed
Settings: 100 kPa, x2 = 0.571

For `O=C1c2ccccc2C(=O)C1(O)O` + CCCC[N+](CCCC)(CCCC)CCCC.O=S(=O)([O-])O, the speed of sound (293.15 K) was 2074.6 m/s, the speed of sound (298.15 K) was 2026.2 m/s and the speed of sound (303.15 K) was 1974.8 m/s. For the same compound, the electrical conductivity (308.15 K) was 0.0001 S/m, the speed of sound (308.15 K) was 1920.7 m/s and the electrical conductivity (313.15 K) was 0.0002 S/m. The speed of sound (313.15 K) was 1859 m/s, the electrical conductivity (318.15 K) was 0.0003 S/m and the speed of sound (318.15 K) was 1802.5 m/s. The electrical conductivity (323.15 K) was 0.0006 S/m, the speed of sound (323.15 K) was 1740.4 m/s and the viscosity (323.15 K) was 48000 mPa·s. For the same compound, the electrical conductivity (333.15 K) was 0.0018 S/m, the speed of sound (333.15 K) was 1629.2 m/s and the viscosity (333.15 K) was 15800 mPa·s. The viscosity (338.15 K) was 11000 mPa·s.
